Results as given in PubChem BioAssay AID330 (DTP/NCI, 2004).
Where “and” joins values, the source holds several entries; their conditions need not be identical. Identical values can stand only once. Inconclusive results and toxic doses are left out. How the source made its calls: active means survival T/C of 150% or more; inactive means T/C below 125% in these data.

Test system: P388 leukemia ip, CD2F1 mice, survival T/C
Experiment: NCI In Vivo Anticancer Drug Screen. Data for tumor model P388 Leukemia (intraperitoneal) in CD2F1 (CDF1) mice
Conditions: endpoint: median survival time, higher = longer survival
In short: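 Mice carrying the transplanted tumor received test compound or vehicle. Survival was recorded in each group, and the value is the treated-group measurement divided by that of the vehicle-treated control group.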

[1] = dose: 100.0 mg/kg/injection, schedule: Q01DX001 (ip), vehicle: saline with Tween-80
[2] = dose: 200.0 mg/kg/injection, schedule: Q01DX001 (ip), vehicle: saline with Tween-80
[3] = dose: 400.0 mg/kg/injection, schedule: Q01DX001 (ip), vehicle: saline with Tween-80
[4] = dose: 100.0 mg/kg/injection, schedule: Q04DX002 (ip), vehicle: Klucel (hydroxypropylcellulose) (HPC)
[5] = dose: 200.0 mg/kg/injection, schedule: Q04DX002 (ip), vehicle: Klucel (hydroxypropylcellulose) (HPC)
[6] = dose: 400.0 mg/kg/injection, schedule: Q04DX002 (ip), vehicle: Klucel (hydroxypropylcellulose) (HPC)
[7] = dose: 25.0 mg/kg/injection, schedule: Q01DX009 (ip), vehicle: saline with Tween-80
[8] = dose: 50.0 mg/kg/injection, schedule: Q01DX009 (ip), vehicle: saline with Tween-80
[9] = dose: 100.0 mg/kg/injection, schedule: Q01DX009 (ip), vehicle: saline with Tween-80
[10] = dose: 200.0 mg/kg/injection, schedule: Q01DX009 (ip), vehicle: saline with Tween-80
[11] = dose: 60.0 mg/kg/injection, schedule: Q01DX005 (ip), vehicle: saline with Tween-80
[12] = dose: 120.0 mg/kg/injection, schedule: Q01DX005 (ip), vehicle: saline with Tween-80
[13] = dose: 12.5 mg/kg/injection, schedule: Q01DX009 (ip), vehicle: saline with Tween-80
[14] = dose: 240.0 mg/kg/injection, schedule: Q01DX005 (ip), vehicle: saline with Tween-80

Measured: T/C

C[C@]12CC[C@H](OC(=O)/C=C\c3ccc(N(CCCl)CCCl)cc3)CC1CC[C@@H]1C2CC[C@]2(C)NC(=O)CCC12 (some centres undefined)
inactive: [1] 100 % of control | [2] 100 % of control | [3] 100 % of control

Cc1cc(O)cc(O)c1C(=O)OC1C[C@@]2(C)C1=C(CO)C[C@@H]1CC(C)(C)C[C@@H]12 (some centres undefined)
inactive: dose: 1.25 mg/kg/injection, schedule: Q01DX005 (ip), vehicle: Klucel (hydroxypropylcellulose) (HPC) 96 % of control | dose: 2.5 mg/kg/injection, schedule: Q01DX005 (ip), vehicle: Klucel (hydroxypropylcellulose) (HPC) 99 % of control | dose: 5.0 mg/kg/injection, schedule: Q01DX005 (ip), vehicle: Klucel (hydroxypropylcellulose) (HPC) 96 % of control | dose: 10.0 mg/kg/injection, schedule: Q01DX005 (ip), vehicle: Klucel (hydroxypropylcellulose) (HPC) 96 % of control | dose: 20.0 mg/kg/injection, schedule: Q01DX005 (ip), vehicle: Klucel (hydroxypropylcellulose) (HPC) 100 % of control | dose: 40.0 mg/kg/injection, schedule: Q01DX005 (ip), vehicle: Klucel (hydroxypropylcellulose) (HPC) 106 % of control | dose: 80.0 mg/kg/injection, schedule: Q01DX005 (ip), vehicle: Klucel (hydroxypropylcellulose) (HPC) 112 % of control | dose: 160.0 mg/kg/injection, schedule: Q01DX005 (ip), vehicle: Klucel (hydroxypropylcellulose) (HPC) 104 % of control

CCOC(=O)/C(C#N)=C(\CCC(C(=O)O)N1C(=O)c2ccccc2C1=O)OC (centres undefined)
inactive: [4] 102 % of control | [5] 102 % of control | [6] 110 % of control

COCN(C)N=Nc1ccc(C(=O)OC)cc1
inactive: dose: 60.0 mg/kg/injection, schedule: Q01DX005 (ip), vehicle: Klucel (hydroxypropylcellulose) (HPC) 107 % of control | dose: 120.0 mg/kg/injection, schedule: Q01DX005 (ip), vehicle: Klucel (hydroxypropylcellulose) (HPC) 101 % of control | dose: 240.0 mg/kg/injection, schedule: Q01DX005 (ip), vehicle: Klucel (hydroxypropylcellulose) (HPC) 87 % of control

O=C1CCS(=O)(=O)CC1
inactive: [7] 108 % of control | [8] 103 % of control and 107 % of control | [9] 114 % of control and 120 % of control | [10] 107 % of control and 123 % of control | dose: 400.0 mg/kg/injection, schedule: Q01DX009 (ip), vehicle: saline with Tween-80 113 % of control and 120 % of control | dose: 600.0 mg/kg/injection, schedule: Q01DX009 (ip), vehicle: saline with Tween-80 123 % of control

COC1=C(OC)C(=O)C=CC1=O
inactive: dose: 0.78 mg/kg/injection, schedule: Q01DX009 (ip), vehicle: saline 101 % of control | dose: 1.56 mg/kg/injection, schedule: Q01DX009 (ip), vehicle: saline 94 % of control | dose: 3.13 mg/kg/injection, schedule: Q01DX009 (ip), vehicle: saline 96 % of control | dose: 6.25 mg/kg/injection, schedule: Q01DX009 (ip), vehicle: saline 102 % of control

CC(C)(C)NCC(O)CCl (centres undefined)
inactive: dose: 25.0 mg/kg/injection, schedule: Q01DX009 (ip), vehicle: water 113 % of control | dose: 50.0 mg/kg/injection, schedule: Q01DX009 (ip), vehicle: water 99 % of control | dose: 100.0 mg/kg/injection, schedule: Q01DX009 (ip), vehicle: water 99 % of control | dose: 200.0 mg/kg/injection, schedule: Q01DX009 (ip), vehicle: water 103 % of control

N/C(Cc1noc2ccc(F)cc12)=N\O
inactive: dose: 50.0 mg/kg/injection, schedule: Q01DX009 (ip), vehicle: saline 107 % of control | dose: 100.0 mg/kg/injection, schedule: Q01DX009 (ip), vehicle: saline 107 % of control

CC(C)(CCC(=S)N1CCOCC1)c1ccccc1
inactive: [7] 111 % of control | [8] 96 % of control | [9] 105 % of control | [10] 105 % of control

CC(=O)c1cc2c(cc1Br)OCO2
inactive: dose: 100.0 mg/kg/injection, schedule: Q01DX001 (ip), vehicle: Klucel (hydroxypropylcellulose) (HPC) 100 % of control | dose: 200.0 mg/kg/injection, schedule: Q01DX001 (ip), vehicle: Klucel (hydroxypropylcellulose) (HPC) 102 % of control | dose: 400.0 mg/kg/injection, schedule: Q01DX001 (ip), vehicle: Klucel (hydroxypropylcellulose) (HPC) 108 % of control

C=C1C(=O)C(CCCC)=C(CCC)C1O (centres undefined)
inactive: [11] 100 % of control | [12] 107 % of control

COc1cc(OC)c2c(=O)c3cccc([N+](=O)[O-])c3n(C)c2c1
inactive: [1] 104 % of control | [2] 100 % of control | [3] 98 % of control

O=C(OC(c1ccccc1)(C(F)(F)F)C(F)(F)F)c1ccc(Cl)cc1
inactive: [4] 92 % of control | [5] 98 % of control | [6] 97 % of control

C1CN=C(N2CCCC2)C1
inactive: [13] 103 % of control | [7] 94 % of control | [8] 101 % of control and 90 % of control

CC(=O)N1C=CC(C2C=CN(C(C)=O)C=C2)C=C1
inactive: dose: 10.0 mg/kg/injection, schedule: Q01DX009 (ip), vehicle: saline with Tween-80 109 % of control | dose: 20.0 mg/kg/injection, schedule: Q01DX009 (ip), vehicle: saline with Tween-80 96 % of control | dose: 40.0 mg/kg/injection, schedule: Q01DX009 (ip), vehicle: saline with Tween-80 100 % of control

FC(F)(F)c1ccccc1N=Cc1ccc(C=Nc2ccccc2C(F)(F)F)cc1
inactive: dose: 50.0 mg/kg/injection, schedule: Q01DX009 (ip), vehicle: Klucel (hydroxypropylcellulose) (HPC) 98 % of control | dose: 100.0 mg/kg/injection, schedule: Q01DX009 (ip), vehicle: Klucel (hydroxypropylcellulose) (HPC) 91 % of control

COC(=O)c1ccc(/C=C(\c2ccc([N+](=O)[O-])o2)S(=O)(=O)c2ccc(NC(C)=O)cc2)o1
inactive: dose: 50.0 mg/kg/injection, schedule: Q01DX009 (ip), vehicle: suspension in saline 95 % of control | dose: 100.0 mg/kg/injection, schedule: Q01DX009 (ip), vehicle: suspension in saline 88 % of control

O=C(N=C=S)c1ccccc1
inactive: dose: 100.0 mg/kg/injection, schedule: Q04DX003 (ip), vehicle: other 90 % of control | dose: 200.0 mg/kg/injection, schedule: Q04DX003 (ip), vehicle: other 100 % of control | dose: 400.0 mg/kg/injection, schedule: Q04DX003 (ip), vehicle: other 109 % of control

O=C(Cn1cnc2c(=S)nc[nH]c21)Oc1ccc([N+](=O)[O-])cc1
inactive: [13] 109 % of control | [7] 100 % of control | dose: 25.0 mg/kg/injection, schedule: Q04DX003 (ip), vehicle: saline with Tween-80 91 % of control | [8] 100 % of control | dose: 50.0 mg/kg/injection, schedule: Q04DX003 (ip), vehicle: saline with Tween-80 91 % of control

N#Cc1c(-c2ccccc2)c(-c2ccccc2)nn(CC(=O)O)c1=O
inactive: dose: 12.5 mg/kg/injection, schedule: Q01DX005 (ip), vehicle: sodium bicarbonate 102 % of control | dose: 25.0 mg/kg/injection, schedule: Q01DX005 (ip), vehicle: sodium bicarbonate 100 % of control | dose: 25.0 mg/kg/injection, schedule: Q04DX002 (ip), vehicle: distilled water + Tween-80 101 % of control | dose: 50.0 mg/kg/injection, schedule: Q01DX005 (ip), vehicle: sodium bicarbonate 101 % of control | dose: 50.0 mg/kg/injection, schedule: Q04DX002 (ip), vehicle: distilled water + Tween-80 100 % of control | dose: 100.0 mg/kg/injection, schedule: Q01DX005 (ip), vehicle: sodium bicarbonate 102 % of control | dose: 100.0 mg/kg/injection, schedule: Q04DX002 (ip), vehicle: distilled water + Tween-80 101 % of control | dose: 200.0 mg/kg/injection, schedule: Q01DX005 (ip), vehicle: sodium bicarbonate 92 % of control | dose: 200.0 mg/kg/injection, schedule: Q04DX002 (ip), vehicle: distilled water + Tween-80 99 % of control

O=S(=O)(Nc1ccnn1-c1ccccc1)c1ccc(N=Cc2c3ccccc3nc3cc(Cl)ccc23)cc1
inactive: [11] 94 % of control | [12] 91 % of control | [14] 102 % of control

SCC(CS)=C(CS)CS
inactive: [11] 112 % of control | [12] 113 % of control | [14] 106 % of control

O=C(Cc1cccs1)c1ccc(O)cc1
inactive: dose: 50.0 mg/kg/injection, schedule: Q01DX005 (ip), vehicle: Klucel (hydroxypropylcellulose) (HPC) 99 % of control | dose: 100.0 mg/kg/injection, schedule: Q01DX005 (ip), vehicle: Klucel (hydroxypropylcellulose) (HPC) 102 % of control | dose: 200.0 mg/kg/injection, schedule: Q01DX005 (ip), vehicle: Klucel (hydroxypropylcellulose) (HPC) 105 % of control
